Data as given in patent publication US20080293712A1, “Benzo[C][2,7]Naphtyridine Derivatives, Methods of Making Thereof and Methods of Use Thereof” (WYETH, priority 2007, published 2008).
Like-named read-outs stand apart in the source and are kept apart here.

Columns and labels:
Type in all cases: biochemical
PDK-1 = target: T1, PDK-1 (Homo sapiens, UniProt O15530); test: PDK-1 kinase inhibition ELISA assay (phosphorylation of His6-tagged SGK1 S422D by PDK-1)
T1 sequence (O15530 1-556): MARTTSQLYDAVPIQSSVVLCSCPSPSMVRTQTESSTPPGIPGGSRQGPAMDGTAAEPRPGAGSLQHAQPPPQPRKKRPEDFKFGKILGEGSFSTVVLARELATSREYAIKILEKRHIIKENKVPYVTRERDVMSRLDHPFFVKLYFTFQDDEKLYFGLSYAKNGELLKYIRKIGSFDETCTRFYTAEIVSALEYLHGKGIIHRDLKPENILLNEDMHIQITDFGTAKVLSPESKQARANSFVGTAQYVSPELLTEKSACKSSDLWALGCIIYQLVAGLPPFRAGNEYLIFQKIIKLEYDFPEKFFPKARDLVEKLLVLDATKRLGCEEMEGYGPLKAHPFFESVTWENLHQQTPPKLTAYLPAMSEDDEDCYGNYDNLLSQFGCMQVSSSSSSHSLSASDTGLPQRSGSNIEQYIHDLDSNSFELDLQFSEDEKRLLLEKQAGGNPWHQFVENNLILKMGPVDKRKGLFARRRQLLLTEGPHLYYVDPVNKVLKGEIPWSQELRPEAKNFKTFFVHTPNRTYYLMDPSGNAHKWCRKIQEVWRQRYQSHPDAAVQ

PKA = PKA (Homo sapiens, UniProt P17612); test: PKA kinase inhibition, Z'-LYTE FRET assay; conditions: 20 μM ATP
From the text: Z′-Lyte™ assay is an in vitro FRET-based assay that utilizes differential sensitivity of phosphorylated and non-phosphorylated peptides to proteolytic cleavage. The peptide substrate (also available from Invitrogen for each of PKA, Akt1 and S6K) is labeled with two different fluorophores, a fluorescence donor at one end of the peptide and a fluorescence acceptor at the other end of the peptide. In the primary kinase reaction, the kinase phosphorylates the peptide substrate in the presence of ATP. In the secondary reaction, a site-specific protease recognizes and cleaves non-phosphorylated peptides, but not phosphorylated peptides. Cleavage disrupts FRET between the donor and acceptor fluorophores on the peptide, whereas uncleaved phosphorylated peptides maintain FRET. Based on a formula that uses the ratio of donor emission (at 460 nm) to acceptor emission (at 535 nM) after excitation of the donor fluorophore at 400 nm, the extent of phosphorylation of the peptide substrates is calculated.

Akt1 = Akt1 (Homo sapiens, UniProt P31749); test: Akt1 kinase inhibition, Z'-LYTE FRET assay; conditions: 100 μM ATP
From the text: The ability of illustrative Benzo[c][2,7]naphthyridine Derivatives to inhibit PKA, Akt1, S6K in vitro can be determined using a Fluorescence Resonance Energy Transfer (FRET) assay, such as a Z′-LYTE™ Kinase Assay Platform, commercially available from Invitrogen (c.f. Rodems et al., ASSAY Drug Devel. Technol. 1:9-19 (2002) and Zhang et al., J. Biomol. Screen. 4:67-73 (1999)). Z′-Lyte™ assay is an in vitro FRET-based assay that utilizes differential sensitivity of phosphorylated and non-phosphorylated peptides to proteolytic cleavage. The peptide substrate (also available from Invitrogen for each of PKA, Akt1 and S6K) is labeled with two different fluorophores, a fluorescence donor at one end of the peptide and a fluorescence acceptor at the other end of the peptide. In the primary kinase reaction, the kinase phosphorylates the peptide substrate in the presence of ATP. In the secondary reaction, a site-specific protease recognizes and cleaves non-phosphorylated peptides, but not phosphorylated peptides. Cleavage disrupts FRET between the donor and acceptor fluorophores on the peptide, whereas uncleaved phosphorylated peptides maintain FRET. Based on a formula that uses the ratio of donor emission (at 460 nm) to acceptor emission (at […]) after excitation of the donor fluorophore at 400 nm, the extent of phosphorylation of the peptide substrates is calculated. IC50 values of illustrative Benzo[c][2,7]naphthyridine Derivatives, shown in Table 12, are calculated using LSW Data Analysis package add-in for Excel (Microsoft).

[1] = PDK-1 ELISA, Table 11, read-out: Average IC50

Akt1, sequence (P31749 whole entry, species assumed): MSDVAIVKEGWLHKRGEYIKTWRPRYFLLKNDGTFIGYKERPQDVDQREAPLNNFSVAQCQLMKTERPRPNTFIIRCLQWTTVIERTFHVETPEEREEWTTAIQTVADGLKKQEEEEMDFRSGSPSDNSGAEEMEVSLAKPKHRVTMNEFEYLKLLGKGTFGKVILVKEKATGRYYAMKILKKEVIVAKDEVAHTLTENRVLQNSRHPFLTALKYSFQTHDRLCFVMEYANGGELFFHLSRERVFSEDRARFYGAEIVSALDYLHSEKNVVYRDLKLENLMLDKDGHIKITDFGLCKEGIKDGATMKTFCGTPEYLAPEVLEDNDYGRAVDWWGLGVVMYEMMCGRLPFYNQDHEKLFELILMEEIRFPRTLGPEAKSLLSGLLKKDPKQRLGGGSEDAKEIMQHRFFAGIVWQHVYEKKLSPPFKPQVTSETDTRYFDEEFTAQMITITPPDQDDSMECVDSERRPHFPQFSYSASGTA

For `CC(C)(C)OC(=O)N[C@H](COc1cncc(-c2cc3c(cnc4cc(C#CCCn5ccnc5)ccc43)c(N)n2)c1)Cc1ccccc1` [Ia-6, tert-Butyl-{(1S)-2-[(5-{4-amino-8-[4-(1H-imidazol-1-yl)but-1-yn-1-yl]benzo[c]-2,7-naphthyridin-2-yl}pyridin-3-yl)oxy]-1-benzylethyl}carbamate], the IC50 (PDK-1; [1]) was > 5000 nM, the IC50 (PKA) was > 20 µM and the IC50 (Akt1) was > 20000 nM.
`Nc1nc(-n2ccnc2)cc2c1cnc1cc(C#CCCn3ccnc3)ccc12` [Ia-30, 2-(1H-imidazol-1-yl)-8-[4-(1H-imidazol-1-yl)but-1-yn-1-yl]benzo[c]-2,7-naphthyridin-4-amine] was tested, and the IC50 (PDK-1; [1]) was 179 nM, the IC50 (PKA) was > 20 µM and the IC50 (Akt1) was 15000 nM.
With `CCOc1cc2ncc3c(N)nc(-c4cccnc4)cc3c2cc1OCC` [Ia-46, 8,9-Diethoxy-2-pyridin-3-ylbenzo[c]-2,7-naphthyridin-4-amine] the IC50 (PDK-1) was 74 nM, the IC50 (PKA) was > 20 µM and the IC50 (Akt1) was 200 nM.
Work on `CN(C)CC#Cc1ccc2c(c1)ncc1c(N)nc(-n3ccnc3)cc12` [Ia-36, 8-[3-(Dimethylamino)prop-1-yn-1-yl]-2-(1H-imidazol-1-yl)benzo[c]-2,7-naphthyridin-4-amine] yielded an IC50 (PDK-1; [1]) of 531 nM and an IC50 (Akt1) of 2000 nM.
For `COc1cc2c(cc1N1CCC(N3CCCC3)CC1)ncc1c(N)nc(-c3cccnc3C)cc12` [Ia-19, 9-methoxy-2-(2-methylpyridin-3-yl)-8-(4-pyrrolidin-1-ylpiperidin-1-yl)benzo[c]-2,7-naphthyridin-4-amine], the IC50 (PDK-1; [1]) was > 5000 nM and the IC50 (PKA) was > 10 µM.
`CCN1CCN(CCC#Cc2ccc3ncc4c(N)nc(-n5ccnc5)cc4c3c2)CC1` [Ia-18, 9-[4-(4-Ethylpiperazin-1-yl)but-1-yn-1-yl]-2-(1H-imidazol-1-yl)benzo[c]-2,7-naphthyridin-4-amine] was tested, and the IC50 (PDK-1; [1]) was > 3000 nM, the IC50 (PKA) was > 10 µM and the IC50 (Akt1) was > 10000 nM.
In the case of `COc1cc2c(cc1OCc1ccccc1)ncc1c(N)nc(-n3ccnc3)cc12` [Ia-34, 8-(Benzyloxy)-2-(1H-imidazol-1-yl)-9-methoxybenzo[c]-2,7-naphthyridin-4-amine], the IC50 (PDK-1; [1]) is reported as 193 nM, the IC50 (PKA) is reported as > 20 µM and the IC50 (Akt1) is reported as 180 nM.
`COc1cc2ncc3c(N)nc(-c4cncc(OC[C@@H](N)Cc5ccc(OCc6ccccc6)cc5)c4)cc3c2cc1OC` [Ib-54, 2-[5-({(2S)-2-amino-3-[4-(benzyloxy)phenyl]propyl}oxy)pyridin-3-yl]-8,9-dimethoxybenzo[c]-2,7-naphthyridin-4-amine] was tested, and the IC50 (PDK-1; [1]) was 212 nM, the IC50 (PKA) was > 10 µM and the IC50 (Akt1) was 3000 nM.
In the case of `COc1cc2c(cc1OCCCN1CCOCC1)ncc1c(N)nc(-n3ccnc3)cc12` [Ia-16, 2-(1H-imidazol-1-yl)-9-methoxy-8-(3-morpholinopropoxy)benzo[c][2,7]naphthyridin-4-amine], the IC50 (PDK-1; [1]) is reported as 170 nM, the IC50 (PKA) is reported as > 10 µM and the IC50 (Akt1) is reported as 380 nM.
In the case of `COCCOc1cc2ncc3c(N)nc(-n4cnc(-c5ccccc5)c4)cc3c2cc1OC` [Ia-41, 9-Methoxy-8-(2-methoxyethoxy)-2-(4-phenyl-1H-imidazol-1-yl)benzo[c]-2,7-naphthyridin-4-amine], the IC50 (PDK-1; [1]) is reported as 2030 nM, the IC50 (PKA) is reported as > 20 µM and the IC50 (Akt1) is reported as 18000 nM.
For `COc1cc2ncc3c(N)nc(-n4ccnc4)cc3c2cc1OC` [Ib-74, 2-(1H-imidazol-1-yl)-8,9-dimethoxybenzo[c]-2,7-naphthyridin-4-amine], the IC50 (PKA) was > 20 µM and the IC50 (Akt1) was 180 nM.
For `COc1cc2c(cc1N1CCC(N3CCCC3)CC1)ncc1c(N)nc(-c3cccnc3)cc12` [Ia-20, 9-methoxy-2-pyridin-3-yl-8-(4-pyrrolidin-1-ylpiperidin-1-yl)benzo[c]-2,7-naphthyridin-4-amine], the IC50 (PDK-1; [1]) was 893 nM, the IC50 (PKA) was > 20 µM and the IC50 (Akt1) was 300 nM.
With `COc1cc2ncc3c(N)nc(-c4cncc(OC[C@@H](N)CN5CCC[C@@H]5c5nccs5)c4)cc3c2cc1OC` [Ib-102, 2-[5-({(2S)-2-amino-3-[(2R)-2-(1,3-thiazol-2-yl)pyrrolidin-1-yl]propyl}oxy)pyridin-3-yl]-8,9-dimethoxybenzo[c][2,7]naphthyridin-4-amine] the IC50 (PDK-1; [1]) was 38 nM.
Work on `COc1cc2ncc3c(N)nc(-c4cncc(OC[C@@H](N)CNc5ccc(N)cc5)c4)cc3c2cc1OC` [Ib-111, N-[(2S)-2-amino-3-{[5-(4-amino-8,9-dimethoxybenzo[c][2,7]naphthyridin-2-yl)pyridin-3-yl]oxy}propyl]benzene-1,4-diamine] yielded an IC50 (PDK-1; [1]) of 81 nM.
Work on `COCCN(C)c1cc2ncc3c(N)nc(-c4cncc(OC[C@@H](N)Cc5ccccc5)c4)cc3c2cc1OC` [Ia-38, 2-(5-{[(2S)-2-amino-3-phenylpropyl]oxy}pyridine-3-yl)-9-methoxy-N^8-(2-methoxyethyl)-N^8-methylbenzo[c]-2,7-naphthyridin-4,8-diamine] yielded an IC50 (PDK-1; [1]) of 69.5 nM.
`COc1cc2ncc3c(N)nc(-c4cncc(OC[C@@H](N)COc5ncccn5)c4)cc3c2cc1OC` [Ib-149, 2-(5-{[(2R)-2-amino-3-(pyrimidin-2-yloxy)propyl]oxy}pyridin-3-yl)-8,9-dimethoxybenzo[c][2,7]naphthyridin-4-amine] showed an IC50 (PDK-1; [1]) of 7 nM.
For `CCC(C)NC(=N)c1cncc(-c2cc3c(cnc4cc(OC)c(OC)cc43)c(N)n2)c1` (stereo not drawn) [Ib-270, 5-(4-Amino-8,9-dimethoxybenzo[c][2,7]naphthyridin-2-yl)-N-sec-butylnicotin-imidamide], the IC50 (PDK-1; [1]) was 606 nM.
`COc1cc2ncc3c(N)nc(-c4cncc(OC[C@@H](N)CSc5ccc(Cl)cc5Cl)c4)cc3c2cc1OC` [Ib-163, 2-[5-({(2R)-2-amino-3-[(2,4-dichlorophenyl)thio]propyl}oxy)pyridin-3-yl]-8,9-dimethoxybenzo[c][2,7]naphthyridin-4-amine] gave an IC50 (PDK-1; [1]) of 12 nM.
`CC[C@H](N)COc1cncc(-c2cc3c(cnc4cc(OC)c(OC)cc43)c(N)n2)c1` [Ib-14, 2-(5-{[(2S)-2-aminobutyl]oxy}pyridin-3-yl)-8,9-dimethoxybenzo[c]-2,7-naphthyridin-4-amine] was tested, and the IC50 (PDK-1; [1]) was 6 nM.
In the case of `CCN1CCCC1CNc1cc2c(cnc3cc(OCCOC)c(OC)cc32)c(NCC2CCCN2CC)n1` (stereo not drawn) [Compound I-4, N,N′-bis[(1-ethylpyrrolidin-2-yl)methyl]-9-methoxy-8-(2-methoxyethoxy)benzo[c]-2,7-naphthyridine-2,4-diamine], the IC50 (PDK-1; [1]) is reported as > 20000 nM.
In the case of `COc1cc2c(cc1OCCN1CCN(C)CC1)ncc1c(N)nc(-n3ccnc3)cc12` [Ia-10, 2-(1H-imidazol-1-yl)-9-methoxy-8-(2-(4-methylpiperazin-1-yl)ethoxy)benzo[c][2,7]naphthyridin-4-amine], the IC50 (PDK-1; [1]) is reported as 1150 nM.
`CCN(CC)CCNC(=O)c1ccc(Nc2cncc(-c3cc4c(cnc5cc(OC)c(OC)cc54)c(N)n3)c2)cc1` [Ib-191, 4-{[5-(4-amino-8,9-dimethoxybenzo[c][2,7]naphthyridin-2-yl)pyridin-3-yl]amino}-N-[2-(diethylamino)ethyl]benzamide] gave an IC50 (PDK-1; [1]) of 81 nM.
For `COCCOc1cc2ncc3c(N)nc(N4CCC(CCO)CC4)cc3c2cc1OC` [Ia-51, 2-{1-[4-amino-9-methoxy-8-(2-methoxyethoxy)benzo[c]-2,7-naphthyridin-2-yl]piperidin-4-yl}ethanol], the IC50 (PDK-1; [1]) was 3720 nM.
`COc1cc2ncc3c(N)nc(-c4cncc(OC[C@@H](N)COc5ccc(CCC#N)cc5)c4)cc3c2cc1OC` [Ib-158, 3-(4-{[(2S)-2-amino-3-{[5-(4-amino-8,9-dimethoxybenzo[c][2,7]naphthyridin-2-yl)pyridin-3-yl]oxy}propyl]oxy}phenyl)propanenitrile] was tested, and the IC50 (PDK-1; [1]) was 55 nM.
For `C=CCOc1cncc(-c2cc3c(cnc4cc(OC)c(OC)cc43)c(N)n2)c1` [Ib-266, 2-(5-(Allyloxy)pyridin-3-yl)-8,9-dimethoxybenzo[c][2,7]naphthyridin-4-amine], the IC50 (PDK-1; [1]) was 18 nM.
In the case of `CCOc1cc2ncc3c(N)nc(-c4ccc(Br)cc4)cc3c2cc1OCC` [Ia-47, 2-(4-bromophenyl)-8,9-diethoxybenzo[c]-2,7-naphthyridin-4-amine], the IC50 (PDK-1; [1]) is reported as > 20000 nM.
With `COc1cc2ncc3c(N)nc(-c4cncc(Nc5c(F)c(F)c(C(N)=O)c(F)c5F)c4)cc3c2cc1OC` [Ib-190, 4-{[5-(4-amino-8,9-dimethoxybenzo[c][2,7]naphthyridin-2-yl)pyridin-3-yl]amino}-2,3,5,6-tetrafluorobenzamide] the IC50 (PDK-1; [1]) was 197 nM.
